# Like-named read-outs stand apart in the source and are kept apart here.
# Assays:
# [1] = tested on: TNFα production in LPS-stimulated human monocytes; assay: Cot Monocyte TNFα Cell Based Assay; details: read-out: EC50 TNF
# Experimental: Example 60: Cot Monocyte TNFα Cell Based Assay
# The cell suspension was then plated at a density of 5,000 cells/well onto black 384 well Greiner clear bottom plates. Plates were pre-spotted with test compounds and serially diluted in DMSO where 200 nL/well were delivered using the Echo 550 acoustic liquid dispenser (Labcyte®) for a final DMSO concentration of 0.5%. Plated cells were treated with compound for 1 hour at 37° C. Cells were then stimulated with 50 pg/ml of LPS (Sigma) excluding outside columns of plate used for unstimulated cell control wells. Cells were incubated for an additional 4 hours at 37° C. Cells were then spun out of the media and 5 ul of sample were taken and analyzed for total TNFα content using the TR-FRET Human TNFα detection system (CisBio). This system utilizes two labeled antibodies (cryptate and XL665) that bind to two different epitopes of the TNFα molecule and produce FRET signal proportional to the concentration of TNFα in the sample. Detection antibodies are mixed 50:50 and 5 μL were dispensed into each well. Plates were covered with clear seals and incubated at room temp overnight. […] Percent of control was calculated as follows: % Control=100×(RatioSample−Ratio0% stimulation)/(Ratio100% Stimulation−Ratio0% Stimulation) where unstimulated cells (0% stimulation) were the negative control and stimulated cells (100% stimulation) were used as the positive control.
# [2] = biological target: T1, human Cot catalytic domain (30-397 amino acids) (Homo sapiens, UniProt P41279); assay: High Throughput Cot Biochemical Assay (KinEASE TR-FRET); details: read-out: IC50 HTRF
# T1 construct: Purified recombinant human Cot catalytic domain (30-397 amino acids) was purchased from Cama Biosciences; purchased Cama Biosciences (so in the source)
# Procedure, shortened: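 TR-FRET readout: Eu-labeled phospho-specific antibody binds XL665-tagged STK3 peptide after phosphorylation by Cot (aa 30-397, 5 nM). Conditions: 400 μM ATP, 1 μM peptide, MOPS pH 7.0 buffer with MgOAc, DTT, BSA, NP-40, glycerol; 0.1% DMSO.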
# [3] = Homo sapiens, Monocyte, LPS-stimulated human monocytes, TNFα TR-FRET
# [4] = Cot KinEASE TR-FRET, 400 μM ATP
# [5] = Homo sapiens, Monocyte, TNFα in LPS-stimulated human monocytes
# [6] = Cot biochemical HTRF (KinEASE TR-FRET) assay
# [7] = Cot KinEASE TR-FRET (HTRF) biochemical assay, 400 μM ATP
# T1 sequence (P41279 30-397): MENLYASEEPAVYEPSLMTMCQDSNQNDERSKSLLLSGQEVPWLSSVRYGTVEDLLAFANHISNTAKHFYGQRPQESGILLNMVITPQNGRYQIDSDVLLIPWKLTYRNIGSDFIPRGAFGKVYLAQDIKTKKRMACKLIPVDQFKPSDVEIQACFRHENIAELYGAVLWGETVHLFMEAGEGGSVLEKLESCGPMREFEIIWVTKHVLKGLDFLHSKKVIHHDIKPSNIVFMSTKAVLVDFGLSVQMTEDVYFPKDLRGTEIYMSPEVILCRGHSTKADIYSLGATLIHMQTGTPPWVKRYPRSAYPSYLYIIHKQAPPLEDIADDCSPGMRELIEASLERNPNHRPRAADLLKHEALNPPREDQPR
Compound,"EC50 [1, 3] [µM]","IC50 [2, 4] [µM]","EC50 [1, 5] [µM]","IC50 [2, 6] [µM]",also measured
"CC(C)(C)N1CCC(n2cc([C@@H](Nc3cc(Cl)c4ncc(C#N)c(NC5CC6CCC5C6)c4c3)c3ccccc3)nn2)CC1 (stereo partly drawn) [Example 596, 4-(bicyclo[2.2.1]heptan-2-ylamino)-6-(((S)-(1-(1-(tert-butyl)piperidin-4-yl)-1H-1,2,3-triazol-4-yl)(phenyl)methyl)amino)-8-chloroquinoline-3-carbonitrile]",,,3.05,0.033,
"CC[C@@H](Nc1c(C#N)cnc2c(Cl)cc(N[C@@H](c3cccc(C(=O)N(C)C)c3)c3cn(C(C)C)nn3)cc12)c1ccccc1 [Example 599, 3-((S)-((8-chloro-3-cyano-4-(((R)-1-phenylpropyl)amino)quinolin-6-yl)amino)(1-isopropyl-1H-1,2,3-triazol-4-yl)methyl)-N,N-dimethylbenzamide]",,,0.134,0.003,
[2H][C@](Nc1cc(C(C)O)c2ncc(C#N)c(NCC(C)(C)C)c2c1)(c1ccc(F)cc1)c1cn(C2CC2)nn1 (some centres unmarked) [Compound 29],,,> 1,,"IC50 [2, 7]: 0.217 µM"
"[2H][C@](Nc1cc(Cl)c2ncc(C#N)c(NCC3(C4CC4)CCC3)c2c1)(c1ccc(F)cc1)c1cn(C2CC2)nn1 [Example 260, (S)-8-chloro-6-(((1-cyclopropyl-1H-1,2,3-triazol-4-yl)(4-fluorophenyl)methyl-d)amino)-4-(((1-cyclopropylcyclobutyl)methyl)amino)quinoline-3-carbonitrile]",,,0.584,,"IC50 [2, 7]: 0.033 µM"
"CC[C@@H](Nc1c(C#N)cnc2c(Cl)cc(N[C@@H](c3ccccc3)c3c[nH]nn3)cc12)c1ccccc1 [Example 627, 8-chloro-6-(((S)-phenyl(1H-1,2,3-triazol-4-yl)methyl)amino)-4-(((R)-1-phenylpropyl)amino) quinoline-3-carbonitrile]",,,0.456,0.016,
"[2H][C@](Nc1cc(Cl)c2ncc(C#N)c(N[C@@H]3CCC[C@H](O)C3)c2c1)(c1ccc(F)cc1)c1cn(C2CC2)nn1 [Example 314, 8-chloro-6-(((S)-(1-cyclopropyl-1H-1,2,3-triazol-4-yl)(4-fluorophenyl)methyl-d)amino)-4-(((1R,3S)-3-hydroxycyclohexyl)amino) quinoline-3-carbonitrile]",,,6.39,,"IC50 [2, 7]: 1.33 µM"
"N#CCC[C@@H](Nc1c(C#N)cnc2c(Cl)cc(N[C@H](c3cn(CC(N)=O)nn3)c3ccccc3Cl)cc12)c1ccccc1 [Example 71, 2-(4-((S)-((8-chloro-3-cyano-4-(((R)-3-cyano-1-phenylpropyl)amino)quinolin-6-yl)amino) (2-chlorophenyl)methyl)-1H-1,2,3-triazol-1-yl) acetamide]",,,0.657,,"IC50 [2, 7]: 0.004 µM"
[2H][C@](Nc1cc(-c2cnc(C)nc2)c2ncc(C#N)c(NCC(C)(C)C)c2c1)(c1ccc(F)cc1)c1cn(C2CC2)nn1 [Compound 62],,,0.447,,"IC50 [2, 7]: 0.029 µM"
"CC(C)n1cc([C@@H](Nc2cc(Cl)c3ncc(C#N)c(Nc4ccc(F)c(Cl)c4)c3c2)c2cccc(CN(C)C)c2)nn1 [Example 712, (S)-8-chloro-4-((3-chloro-4-fluorophenyl)amino)-6-(((3-((dimethylamino)methyl)phenyl)(1-isopropyl-1H-1,2,3-triazol-4-yl)methyl)amino)quinoline-3-carbonitrile]",,,0.498,0.014,
"CC(C)n1cc([C@@H](Nc2cc(Cl)c3ncc(C#N)c(Nc4ccc(F)c(Cl)c4)c3c2)c2cccc(CN(C)CCN(C)C)c2)nn1 [Example 710, (S)-8-chloro-4-((3-chloro-4-fluorophenyl)amino)-6-(((3-(((2-(dimethylamino)ethyl)(methyl)amino)methyl)phenyl) (1-isopropyl-1H-1,2,3-triazol-4-yl)methyl)amino) quinoline-3-carbonitrile]",,,0.352,0.02,

# The next lines start with results.
"EC50 [1, 3] [µM]","IC50 [2, 4] [µM]","EC50 [1, 5] [µM]","IC50 [2, 6] [µM]",Compound,also measured
0.46,0.031,,,"[2H]C(Nc1cc(Cl)c2ncc(C#N)c(NCC(C)(C)C)c2c1)(c1cn(C2(C3CC3)CC2)nn1)c1ccccc1Cl (centres unmarked) [Example 958, 6-(((1-([1,1'-bi(cyclopropan)]-1-yl)-1H-1,2,3-triazol-4-yl)(2-chlorophenyl)methyl-d)amino)-8-chloro-4-(neopentylamino)quinoline-3-carbonitrile]",
,,1.89,0.07,"Cn1cnc(C(Nc2cc(Cl)c3ncc(C#N)c(Nc4ccc(F)c(Cl)c4)c3c2)c2ccc(F)cc2)c1 (centres unmarked) [Example 887, 8-chloro-4-((3-chloro-4-fluorophenyl)amino)-6-(((4-fluorophenyl)(1-methyl-1H-imidazol-4-yl)methyl)amino)quinoline-3-carbonitrile]",
,,0.533,0.012,"N#Cc1cnc2c(Cl)cc(N[C@@H](c3ccc(Cl)cc3)c3cn(C4CCNCC4)nn3)cc2c1Nc1ccc(F)c(Cl)c1 [Example 859, (S)-8-chloro-4-((3-chloro-4-fluorophenyl)amino)-6-(((4-chlorophenyl)(1-(piperidin-4-yl)-1H-1,2,3-triazol-4-yl)methyl)amino)quinoline-3-carbonitrile]",
0.17,0.003,,,"CC(C)(C)CNc1c(C#N)cnc2c(C#N)cc(N[C@H](c3cn(C4(C(N)=O)CC4)nn3)c3ccccc3Cl)cc12 [Example 957, (S)-1-(4-((2-chlorophenyl)((3,8-dicyano-4-(neopentylamino)quinolin-6-yl)amino)methyl)-1H-1,2,3-triazol-1-yl)cyclopropane-1-carboxamide]",
0.496,0.019,,,"Cc1c([C@H](Nc2cc(Cl)c3ncc(C#N)c(NCC(C)(C)C)c3c2)c2cn(C3(C(F)(F)F)CC3)nn2)cccc1-n1nccn1 [Example 1039, (S)-8-chloro-6-(((2-methyl-3-(2H-1,2,3-triazol-2-yl)phenyl)(1-(1-(trifluoromethyl)cyclopropyl)-1H-1,2,3-triazol-4-yl)methyl)amino)-4-(neopentylamino)quinoline-3-carbonitrile]",
0.213,0.017,,,"Cc1ccccc1[C@H](Nc1cc(C#N)c2ncc(C#N)c(NCC(C)(C)C)c2c1)c1cn(C2(C(F)(F)F)CC2)nn1 [Example 1067, (S)-4-(neopentylamino)-6-((o-tolyl(1-(1-(trifluoromethyl)cyclopropyl)-1H-1,2,3-triazol-4-yl)methyl)amino)quinoline-3,8-dicarbonitrile]",
0.123,0.001,,,"Cc1c(C#N)cccc1[C@H](Nc1cc(Cl)c2ncc(C#N)c(NCC(C)(C)C)c2c1)c1cn(C2(C(N)=O)CC2)nn1 [Example 1008, (S)-1-(4-(((8-chloro-3-cyano-4-(neopentylamino)quinolin-6-yl)amino)(3-cyano-2-methylphenyl)methyl)-1H-1,2,3-triazol-1-yl)cyclopropane-1-carboxamide]",
0.561,0.029,,,"CC(C)(C)CNc1c(C#N)cnc2c(Cl)cc(N[C@@H](c3ccc(F)c(C(N)=O)c3)c3cn(C4(C(F)(F)F)CC4)nn3)cc12 [Example 1117, (S)-5-(((8-chloro-3-cyano-4-(neopentylamino)quinolin-6-yl)amino)(1-(1-(trifluoromethyl)cyclopropyl)-1H-1,2,3-triazol-4-yl)methyl)-2-fluorobenzamide]",
,0.022,,,"8-chloro-4-((4-cyna-1- phenylbutyl)amino)-6-(((1- cyclopropyl-1H-1,2,3-triazol-4- yl)(4-fluorophenyl)methyl- d)amino)quinoline-3-carbonitrile [Example 981]","EC50 ([1]; LPS-stimulated human monocytes, TNFα TR-FRET): 0.318 µM"
0.073,0.007,,,"CC(C)(C)CNc1c(C#N)cnc2c(Cl)cc(N[C@@H](c3ccc(C#N)cc3)c3cn(C4CC4)nn3)cc12 [Example 1084, (S)-8-chloro-6-(((4-cyanophenyl)(1-cyclopropyl-1H-1,2,3-triazol-4-yl)methyl)amino)-4-(neopentylamino)quinoline-3-carbonitrile]",
,,1.4,0.087,"COCCOCCn1cc([C@@H](Nc2cc(Cl)c3ncc(C#N)c(Nc4ccc(F)c(F)c4)c3c2)c2ccc(Cl)cc2)nn1 [Example 724, (S)-8-chloro-6-(((4-chlorophenyl)(1-(2-(2-methoxyethoxy)ethyl)-1H-1,2,3-triazol-4-yl)methyl)amino)-4-((3,4-difluorophenyl)amino) quinoline-3-carbonitrile]",
0.031,0.002,,,"CCN1CCC(n2cc([C@@H](Nc3cc(Cl)c4ncc(C#N)c(N[C@H](CCC#N)c5ccccc5)c4c3)c3ccc(Cl)cc3)nn2)CC1 [Example 955, 8-chloro-6-(((S)-(4-chlorophenyl)(1-(1-ethylpiperidin-4-yl)-1H-1,2,3-triazol-4-yl)methyl)amino)-4-(((R)-3-cyano-1-phenylpropyl)amino)quinoline-3-carbonitrile]",

# Reference: patent publication US10316017B2, “COT modulators and methods of use thereof” (Gilead Sciences, Inc., priority 2015, dated 2019)
